From patent US20240042019A1, “OPTIMIZED TLR7 LIGANDS AND USES THEREOF” (Genentech, Inc., priority 2021, published 2024)
Entries after “also recorded” stand apart in the source; their conditions may differ. Oligonucleotides are written 5' to 3', each unit as a sugar letter and its base; * is a phosphorothioate linkage, no mark a phosphodiester; rarer units and linkages stand in square brackets, end groups in braces. Plain capitals give the bases only. m = 2'-O-methyl; r = 2'-OH (RNA); f = 2'-fluoro

Key:
[1] = Particle size of RNA-poly-L-arginine complexes by Dynamic Light Scattering; details: 10 minute incubation (FIG. 9)
Method: Particle sizes were determined by Dynamic Light Scattering (Wyatt Technology). Samples were placed in multiple wells in a 384-well plate and each well was measured ten times for 5 seconds. Z-averages were reported.

[2] = biological target: T1, TLR7 (Homo sapiens, UniProt Q9NYK1); experiment: PBMC stimulation with p-L-arginine-complexed RNA ligands, IFN-α ELISA; format: cell-based; details: human PBMCs; for TLR7 selectivity (IFN-α versus TNF-α secretion): p-L-arginine delivery (FIG. 7); for IFN-α secretion (TLR7 activity): p-L-arginine delivery, 16 hours, ELISA (FIG. 7)
T1 construct: Peripheral blood mononuclear cells (PBMCs) were obtained from buffy coats from healthy adult donors; endogenous in cells; host or cells: primary human PBMCs from healthy donor buffy coats (TLR7 expressed by pDCs)
T1 sequence (Q9NYK1 27-1049): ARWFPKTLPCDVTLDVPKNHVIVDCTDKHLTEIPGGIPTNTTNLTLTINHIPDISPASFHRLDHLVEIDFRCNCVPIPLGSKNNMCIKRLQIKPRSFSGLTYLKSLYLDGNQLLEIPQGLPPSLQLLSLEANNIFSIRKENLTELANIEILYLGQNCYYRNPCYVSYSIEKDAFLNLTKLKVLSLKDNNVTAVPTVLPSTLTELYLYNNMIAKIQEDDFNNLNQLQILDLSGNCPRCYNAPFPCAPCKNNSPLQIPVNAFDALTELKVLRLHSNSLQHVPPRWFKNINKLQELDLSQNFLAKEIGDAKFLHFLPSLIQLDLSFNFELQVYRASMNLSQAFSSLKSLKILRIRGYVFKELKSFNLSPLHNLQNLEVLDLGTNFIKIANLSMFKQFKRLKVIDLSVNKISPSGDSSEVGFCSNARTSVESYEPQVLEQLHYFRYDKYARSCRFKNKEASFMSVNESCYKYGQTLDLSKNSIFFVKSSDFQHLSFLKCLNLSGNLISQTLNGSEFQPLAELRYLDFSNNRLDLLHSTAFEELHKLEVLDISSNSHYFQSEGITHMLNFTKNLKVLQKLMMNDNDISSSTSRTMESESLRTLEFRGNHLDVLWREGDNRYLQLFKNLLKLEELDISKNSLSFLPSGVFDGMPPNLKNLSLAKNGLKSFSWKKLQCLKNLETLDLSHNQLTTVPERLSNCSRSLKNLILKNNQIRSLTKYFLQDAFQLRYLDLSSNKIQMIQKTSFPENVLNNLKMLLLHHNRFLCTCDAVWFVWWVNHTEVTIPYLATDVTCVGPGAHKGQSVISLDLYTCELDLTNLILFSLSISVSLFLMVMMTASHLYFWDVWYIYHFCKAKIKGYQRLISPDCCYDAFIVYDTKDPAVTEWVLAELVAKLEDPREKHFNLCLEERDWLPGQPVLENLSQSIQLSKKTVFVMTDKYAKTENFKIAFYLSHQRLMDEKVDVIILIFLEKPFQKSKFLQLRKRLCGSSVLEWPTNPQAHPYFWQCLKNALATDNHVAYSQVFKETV
Method: (§1) Peripheral blood mononuclear cells (PBMCs) were obtained from buffy coats from healthy adult donors. Buffy coat samples were first diluted with an equal volume of phosphate-buffered saline (PBS). Next, PBMCs were isolated via density gradient centrifugation with Lymphoprep density gradient media ([…] Technologies) and SepMate-50 tubes ([…] Technologies). Samples were centrifuged at 1000 g for 15 minutes. After centrifugation, the upper layers were collected by pouring into a new tube, diluted with PBS, and centrifuged at 450×g for 5 minutes. To lyse red blood cells, cell pellets were resuspended with 10 mL Ammonium-Chloride-Potassium (ACK) Lysis Buffer and incubated for 8 minutes at room temperature. After lysis, cells were washed with PBS and passed through two 70 μm cell strainers. Viable cell counts were determined with a Vi-CELL cell counter (Beckman Coulter). […] Guanosine was added between about 20 and about 30 minutes before the addition of poly-[…])-complexed RNA. […] After mixing by pipetting up and down, the reaction was incubated for 10 minutes, pipetted up and down again, and then added to the cells. In some experiments, RNA ligands were used at a final concentration of 0.6 μg/ml. Where indicated as “+2'3' cGMP”, 2'3' cyclic GMP purchased from eMolecules was complexed together with the RNA ligands. The final concentration of 2'3' cyclic GMP was 5 μg/ml. p-L-arginine was adjusted accordingly to keep the mass ratio of nucleic acid:p-L-arginine constant. Cell culture supernatants were collected 15-18 hours after stimulation and stored at -80° C. Cytokines in cell culture supernatants were detected with the BD OptEIA human TNF ELISA Set (BD Biosciences), and either Invitrogen IFN alpha Human Matched Antibody Pair kit (Thermo Fisher Scientific) or Human IFN Alpha Multi-Subtype ELISA Kit (PBL Assay Science). To test the effects of the RNA ligands described in Example 1 on TLR7 and TLR8 activation, PBMCs were stimulated with the RNA ligands using p-L-arginine complex delivery, delivery with DOTAP, or delivery without a carrier. Activity of TLR7 and TLR8 was assessed based on measurements of IFN-α or TNF-α by enzyme-linked immunosorbent assays (ELISA). In this setting, as depicted in FIG. 6, IFN-α induced by small RNAs is derived from TLR7 expressed by pDCs, or from RIG-I expressed by monocytes. In contrast, TNF-α secretion is derived from monocytes and serves as an indication of TLR8 activation. As shown in this figure, the p-L-arginine delivery restricts most of the activation to TLRs. First, the effects of the RNA ligands on TLR7 and TLR8 activation using p-L-arginine complex delivery were tested.

[3] = biological target: T2, TLR8 (Homo sapiens, UniProt Q9NR97); experiment: PBMC stimulation with DOTAP-complexed RNA ligands, TNF-α ELISA; format: cell-based; details: human PBMCs, DOTAP delivery, 0.6 μg/ml and 2 μg/ml, 16 hours (FIGS. 10A-10B)
T2 construct: Peripheral blood mononuclear cells (PBMCs) were obtained from buffy coats from healthy adult donors; endogenous in cells; host or cells: primary human PBMCs from healthy donor buffy coats (TLR8 in monocytes)
T2 sequence (Q9NR97 27-1041): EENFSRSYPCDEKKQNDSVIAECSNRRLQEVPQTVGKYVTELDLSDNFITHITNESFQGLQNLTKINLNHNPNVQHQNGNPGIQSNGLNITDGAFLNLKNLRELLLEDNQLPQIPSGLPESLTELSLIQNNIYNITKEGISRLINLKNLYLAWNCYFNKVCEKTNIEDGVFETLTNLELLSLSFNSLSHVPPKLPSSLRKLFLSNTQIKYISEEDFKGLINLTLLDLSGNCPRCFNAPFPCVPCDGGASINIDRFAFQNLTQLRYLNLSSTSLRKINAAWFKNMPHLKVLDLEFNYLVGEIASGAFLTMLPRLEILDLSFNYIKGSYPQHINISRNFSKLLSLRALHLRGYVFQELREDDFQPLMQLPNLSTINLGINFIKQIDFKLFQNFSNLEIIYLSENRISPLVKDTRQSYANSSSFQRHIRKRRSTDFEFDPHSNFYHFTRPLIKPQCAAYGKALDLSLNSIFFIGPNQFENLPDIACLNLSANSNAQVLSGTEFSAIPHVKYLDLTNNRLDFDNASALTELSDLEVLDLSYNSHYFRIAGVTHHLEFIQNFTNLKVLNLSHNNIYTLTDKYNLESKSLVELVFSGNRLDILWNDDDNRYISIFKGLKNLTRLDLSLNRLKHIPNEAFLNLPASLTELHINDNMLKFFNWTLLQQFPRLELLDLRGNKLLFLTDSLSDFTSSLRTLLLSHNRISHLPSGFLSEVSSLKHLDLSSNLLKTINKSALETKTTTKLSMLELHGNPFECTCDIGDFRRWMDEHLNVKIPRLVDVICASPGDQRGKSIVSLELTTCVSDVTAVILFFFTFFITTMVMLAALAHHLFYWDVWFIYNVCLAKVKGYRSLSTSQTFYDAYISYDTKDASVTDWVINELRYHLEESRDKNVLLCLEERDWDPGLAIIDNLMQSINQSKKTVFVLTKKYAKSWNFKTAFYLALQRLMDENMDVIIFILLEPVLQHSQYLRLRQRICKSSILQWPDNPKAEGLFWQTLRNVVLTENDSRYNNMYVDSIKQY

[4] = biological target: T2, TLR8; experiment: PBMC stimulation with p-L-arginine-complexed RNA ligands, TNF-α ELISA; format: cell-based; details: human PBMCs
Method: as §1

[5] = biological target: T1, TLR7; experiment: PBMC stimulation with DOTAP-complexed RNA ligands, IFN-α ELISA; format: cell-based; details: human PBMCs, DOTAP delivery, 0.6 μg/ml and 2 μg/ml, 16 hours (FIGS. 10A-10B)
[6] = p-L-arginine complexes with 2′3′ cyclic GMP 5 μg/ml, ORN 0.6 μg/ml (FIG. 12)

Substance | Particle size (diameter) of RNA-poly-L-arginine complexes [1] | TLR7 selectivity (IFN-α versus TNF-α secretion) [2] | IFN-α secretion (TLR7 activity) [2] | TNF-α secretion (TLR8 activity) [3] | TNF-α secretion (TLR8 activity) ([4]; p-L-arginine delivery, 16 hours, ELISA (FIG. 7)) | IFN-α secretion when co-delivered with 2′3′ cGMP [2, 6] | TNF-α secretion when co-delivered with 2′3′ cyclic GMP [4, 6] | IFN-α secretion (TLR7 activity) [5]
C*C*G*A*G*C*C*G*C*U*U*U*U*C*C*C (CCGAGCCGCUUUUCCC; all phosphorothioate, sugars by position not given here) [ORN7013, reference compound] | behaved similarly | limited TLR7 selectivity; also recorded: less TLR7-selective | limited TLR7 selectivity and activity; also recorded: less TLR7-selective and active | – | – | – | – | –
C*C*U*U*C*U*U*C*U*U*C*U*U*C*U*U*C*U*U*C (rC*rC*rU*rU*rC*rU*rU*rC*rU*rU*rC*rU*rU*rC*rU*rU*rC*rU*rU*rC) [ORN7012] | behaved similarly | – | – | further increased TLR8 activation | TLR8-active | – | – | –
C*C*G*A*G*C*C*G*C*fU-U*fU-U*C*C*C (rC*rC*rG*rA*rG*rC*rC*rG*rC*fUrU*fUrU*rC*rC*rC) [ORN7015, 2′-fluoro modified version of ORN7013] | behaved similarly | moderately selective | moderately selective and active | – | – | – | – | –
C*C*G*A*G*C*C*G*C*mU-U*fU-U*C*C*C (rC*rC*rG*rA*rG*rC*rC*rG*rC*mUrU*fUrU*rC*rC*rC) [ORN7016, 2′-fluoro- and 2′O-methyl-modified version of ORN7013] | behaved similarly | TLR7-selective | weakly active | – | – | – | – | –
C-G-G-mC-U-C-G-G-C-A-G-A-A-G-C-C-G-G-G-C-C (rCrGrGmCrUrCrGrGrCrArGrArArGrCrCrGrGrGrCrC; hairpin) [ORN70230me, 2′O-methyl-C-modified ORN7023] | behaved similarly | maintained TLR7 selectivity; also recorded: TLR7-selective | further increasing the activity; also recorded: highly active | – | – | – | – | –
U-fC-U-fC-U-fC-U-fC-U-fC-U-fC-U-fC-U-fC-U-fC-U-C (rUfCrUfCrUfCrUfCrUfCrUfCrUfCrUfCrUfCrUrC) [ORN7007, 2′-fluoro-modified version of ORN7005] | – | – | – | also reduced activity | – | robust IFN-a induction | little to no measurable TNF-α | also reduced activity
